Measurements from patent US20120129835A1 (priority 2010, published 2012).

system: SCZD hiPSC neurons; type: cell-based, human

Compound | rabies trans-neuronal tracing in the presence of drugs known to affect synaptic transmission
[Cl-].[K+] [KCl] | occurs
NC1=N[C@H](O)[C@H]2[C@H]3O[C@]4(O)O[C@@H]([C@@H](O)[C@@]2(N1)[C@@H]4O)[C@]3(O)CO [tetrodotoxin] | occurs
ryanodine | occurs
